# Test results from patent publication US20260262641A1 (priority 2023, published 2026).
# What was measured:
# [1] = tested on: ground pearl (Margarodes spp); assay: Field trial in kikuyu turf, control of ground pearl, Sydney (Example 2); type: in vivo
# Experimental: A field trial was conducted in kikuyu turf, to evaluate fenpyroximate for control of ground pearl (Margarodes spp). The trial was located at Sydney University, New South Wales (−33.888, 151.188), in an area with a known infestation of ground pearl.
# All treatments were applied using a hand boom fitted with XR11004 nozzles, in a spray volume of 430 L/ha.
# The ground pearl density by species was assessed by sampling 20 cores per plot and recording the number of eggs and adults, and Normalized Difference Vegetation Index (NDVI) was assessed 56 days after the third application using a Greenseeker.
# (§1) All data was statistically analyzed using analysis of variance and Fisher's protected least significant different test (Fishers LSD). The level of significance for all tests was P<0.05.
# [2] = tested on: couch mite (Aceria cynodoniensis); assay: Field trial in Santa Ana couch turfgrass, control of couch mite (Example 3); type: in vivo
# Experimental: A field trial was conducted in Santa Ana couch turfgrass, to evaluate fenpyroximate for control of couch mite (Aceria cynodoniensis). The trial was located at Terrey Hills Golf and Country Club, New South Wales (−33.668, 151.217). […] All treatments were applied using a hand boom fitted with XR11004 nozzles and in a spray volume of 430 L/ha.
# The incidence of couch mite damage, to the terminal growth point (known as witches' broom) was assessed 42 days after the second application. Turf biomass and vigor were assessed at the same timing on a 0 to 10 rating scale, along with NDVI using a Greenseeker.
# as §1
# [3] = tested on: insecticide-resistant population of redlegged earth mite (H. destructor; RLEM); assay: whole plant or invertebrate; settings: Halotydeus destructor, 24 h, read-out: % RLEM mortality, Resistant
# Experimental: (§2) The insecticide-susceptible H. destructor population tested in this bioassay was collected from burr medic (Medicago polymorpha) and barley grass (Hordeum leporinum) in Moulamein, NSW (−35.102, 144.026), a site with no known history of insecticide application. […] Mites were collected via suction using a Stihl SH55 blower vacuum, placed in plastic containers with paper towel and vegetation, and transported back to the laboratory, where they were stored at 4° C. until testing.
# (§3) Serial dilutions were prepared for each insecticide (Table 9), with the addition of a non-ionic surfactant (Tween 20) at 0.01% to aid the spread of the insecticide and ensure even coating. […] Nine concentrations of bifenthrin were tested, ranging from 1×10^−5 to 10 times the field rate of 40 mL diluted in 100 L of water (100 mg a.i./L). Seven concentrations of omethoate were tested, ranging from 1×10^−5 to 10 times the field rate of 100 mL in 100 L of water (290 mg a.i./L).
# (§4) Six vials were coated per concentration and were left to dry overnight. Control vials were treated in the same way, except water (with the addition of 0.01% Tween) was used. The next day, eight individual H. destructor were then placed into each vial along with 2-3 leaves of common vetch (Vicia sativa), which provided food and humidity. Vials were then sealed with a screw lid and placed in a controlled temperature cabinet at 18° C. After 24-hours exposure, mites were scored as alive (moving freely), incapacitated (inhibited movement), or dead (no movement over a 5 second period).
# (§5) Dose-response curves were generated by plotting percentage mortality against log concentration. A series of logistic models were used to quantify the sensitivity of H. destructor to each chemical and to test whether any differences in sensitivity were present between the two populations. Logistic regression is well suited for the analysis of binary response data (e.g., dead/alive). Each model included chemical concentration and H. destructor population as fixed-effect predictors, which allowed testing for whether populations had average differences in mortality (i.e., model intercept) via F tests. It was then determined if populations had differences in mortality that were dependent on chemical concentration (i.e., differences in regression slopes) by comparing the inclusion of a population×concentration predictor (i.e., allowing slopes to vary between populations). […] The resulting LC50 values were used to quantify the level of insecticide resistance (resistance ratios) relative to the known insecticide-susceptible population. All analyses were conducted using R version 4.3.1 (R Development Core Team 2023).
# [4] = tested on: insecticide-susceptible population of redlegged earth mite (H. destructor; RLEM); assay: whole plant or invertebrate; settings: Halotydeus destructor, 24 h, read-out: % RLEM mortality, Susceptible
# Experimental: as §2, §3, §4, §5
# [5] = tested on: redlegged earth mite (H. destructor; RLEM); assay: Field trial in canola, pre- or post-emergent control of RLEM (Example 5); type: in vivo, Halotydeus destructor
# Experimental: A field trial was conducted in canola cv. Garrison, to evaluate fenpyroximate for control of redlegged earth mite (H. destructor; RLEM) as a pre- or post-emergent application. The trial was located at Beverley, Western Australia (−32.2248085, 117.0268493). The canola was sown on 13th June 2023. […] All treatments were applied using a hand boom fitted with flat fan nozzles in a spray volume of 100 L/ha.
# The density of RLEM was assessed 33 days after the second application timing by counting the number of mites per plant.
# as §1
# [6] = versus untreated, P<0.05, with PE 6200
smiles,measurement,setting,value
Cc1nn(C)c(Oc2ccccc2)c1C=NOCc1ccc(C(=O)OC(C)(C)C)cc1 [Fenpyroximate],"NDVI, Pre-spray","[1]; Pre-spray (baseline), kikuyu turf, Greenseeker",8.0
same,"Ground pearls/plot, Adults, Pre-spray",[1]; sc,4.0 a ground pearls/plot
same,"Ground pearls/plot, Eggs, Pre-spray",[1]; sc,10.3 a ground pearls/plot
same,"Ground pearls/plot, Adults, 56 DAA3","[1]; sc, 200 g/ha, 1344 h",12.8 a ground pearls/plot
same,"Ground pearls/plot, Eggs, 56 DAA3","[1]; sc, 200 g/ha, 1344 h",5.3 a ground pearls/plot
same,"NDVI, 56 DAA3","[1]; sc, 1344 h",7.6
same,turf color and quality / NDVI (in words),"[1]; versus untreated, P<0.05",significantly improved
same,density of ground pearl adults (in words),[1]; [6],significantly reduced
same,density of ground pearl eggs (in words),[1]; [6],significantly reduced
same,"Biomass and vigor (0-10), 42 DAA2","[2]; 42 DAA2, 0 to 10 rating scale, product rate mL/ha: Prophesy 500, Thumper 2000 (+ BS 1000 0.25% v/v), Fenpyroximate 50 SC 4000",4.8
same,"NDVI, 42 DAA2","[2]; 42 DAA2, Greenseeker, product rate mL/ha: Prophesy 500, Thumper 2000 (+ BS 1000 0.25% v/v), Fenpyroximate 50 SC 4000",0.63
same,"% Incidence mite damage, 42 DAA2","[2]; 42 days after second application, product rate mL/ha: Prophesy 500, Thumper 2000 (+ BS 1000 0.25% v/v), Fenpyroximate 50 SC 4000 (200 g ai/ha)",47.0%
same,"Biomass and vigor (0-10), Pre-spray","[2]; Pre-spray (baseline), 0 to 10 rating scale",4.1 a
same,"NDVI, Pre-spray","[2]; Pre-spray (baseline), Greenseeker",0.55 a
same,"% Incidence mite damage, Pre-spray","[2]; Pre-spray (baseline), witches' broom",95.8 a %
same,incidence of couch mite damage (in words),"[2]; versus untreated, P<0.05",significantly reduced
same,turf biomass and vigor and NDVI (in words),"[2]; versus untreated, P<0.05",significantly improved
same,mortality at 0.1 µg/mL,[3],4.6%
same,mortality at 10 µg/mL,[3],11.2%
same,mortality at 100 µg/mL,[3],45.7%
same,mortality at 300 µg/mL,[3],86.3%
same,mortality at 1000 µg/mL,[3],100%
same,mortality at 10000 µg/mL,[3],100%
same,mortality at 0.1 µg/mL,[4],6.9%
same,mortality at 1 µg/mL,[4],12.6%
same,mortality at 10 µg/mL,[4],11.3%
same,mortality at 100 µg/mL,[4],47.3%
same,mortality at 300 µg/mL,[4],92.2%
same,mortality at 1000 µg/mL,[4],98.5%
same,mortality at 10000 µg/mL,[4],100%
same,% Control (33 DAA2),"[5]; application timing A (post-sow pre-emergent), product rate 1000 mL/ha",67%
same,% Control (33 DAA2),"[5]; application timing A (post-sow pre-emergent), product rate 2000 mL/ha",61%
same,% Control (33 DAA2),"[5]; application timing B (early post-emergent, 1 to 2 leaf canola), product rate 1000 mL/ha",63%
same,% Control (33 DAA2),"[5]; application timing B (early post-emergent, 1 to 2 leaf canola), product rate 2000 mL/ha",68%
